The target in this assay is T1, C5a Receptor (Homo sapiens, UniProt P21730).
T1 construct: 2.5-25 μg/mL of purified PMNL membrane fragments; from tissue; host or cells: polymorphonuclear leukocyte (PMNL) membrane fragments
T1 sequence (P21730 1-350): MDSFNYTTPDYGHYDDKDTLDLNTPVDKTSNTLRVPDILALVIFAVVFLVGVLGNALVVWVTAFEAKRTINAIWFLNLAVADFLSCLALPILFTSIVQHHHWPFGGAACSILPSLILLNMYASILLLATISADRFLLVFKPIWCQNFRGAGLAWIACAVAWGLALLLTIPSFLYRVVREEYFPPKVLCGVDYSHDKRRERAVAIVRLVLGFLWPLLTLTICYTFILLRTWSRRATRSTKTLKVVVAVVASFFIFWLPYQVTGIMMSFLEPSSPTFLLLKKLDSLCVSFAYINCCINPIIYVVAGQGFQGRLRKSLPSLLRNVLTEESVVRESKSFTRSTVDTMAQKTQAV
Nature of the assay: Anaphylatoxin receptor binding Ki determination (inhibition of 125I-C5a binding to PMNL membrane fragments). The method, then:
Specific inhibition of C5 a binding activity of representative compounds of the present invention was measured using 0.03-1 nM ^125 I-C5 a with 2.5-25 μg/mL of purified PMNL membrane fragments (Borregaard, N.; Heiple, J. M.; Simons, E. R.; and Clark, R. A. J. Cell. Biol. 1983, 97, 52-61.). Free and membrane-bound ligand were separated by filtration.

Where [1] appears, read: 0.03-1 nM 125I-C5a, 2.5-25 μg/mL purified PMNL membrane fragments, filtration, read-out: Ki (In vitro C5a Receptor Binding Potency).

Read-outs that look alike come from different tables or passages of the source. Non-standard residues stand in square brackets, D forms with d. Residues, ends and D or L forms follow the SMILES beside them. ξ: configuration not given here. *: point of attachment. X10 = N=C(N)NCCCCN(C[C@H](CC1CCCCC1)N*)C(=O)Cc1ccccc1; Butanoyl(3S-Ph) = C[C@@H](CC(=O)*)c1ccccc1; X6 = N#CC(Cc1ccccc1)(Cc1ccccc1)C(=O)*; NHCH2(2-pyridyl) = c1ccc(CN*)nc1; NMeF = CN[C@@H](Cc1ccccc1)C(=O)O; PhLac = O=C(O)[C@@H](O)Cc1ccccc1; X11 = O=[N+]([O-])c1cccc(CN*)c1; Cha = N[C@@H](CC1CCCCC1)C(=O)O; dCha = N[C@H](CC1CCCCC1)C(=O)O; Phe(ol) = N[C@H](CO)Cc1ccccc1; X9 = CC[C@H](C(=O)*)c1ccccc1; X2 = N#CC(Cc1ccccc1)C(=O)*; ξCha = NC(CC1CCCCC1)C(=O)O; 4Amb = NCc1ccc(C(=O)O)cc1; X8 = c1ccc(C2(CN*)CC2)cc1; X7 = O=C(C(CO)c1ccccc1)*; NH(CH2)5NH2 = NCCCCCN*; NHBn = c1ccc(CN*)cc1; Bz = O=C(c1ccccc1)*; OBn = c1ccc(CO*)cc1; X5 = c1ccc(NN*)cc1; X3 = N=C(N)NCCCN*

Usually Ki stands for the dissociation constant of the complex between target and ligand, obtained from inhibition or displacement. For `N=C(N)NCCC[C@@H](NC(=O)[C@H](CC1CCCCC1)NC(=O)[C@@H](CC1CCCCC1)NC(=O)[C@@H]1CCCN1C(=O)[C@H](CCCCN)NC(=O)C(Cc1ccccc1)C(=O)O)C(=O)O` (mixture of isomers) [Example 149, {(R/S)-(2-Carboxyl)-3-phenylpropionyl}-Lysyl-Prolyl-{(2R)-2-Amino-3-cyclohexylpropanoyl}-{(2S)-2-Amino-3-cyclohexylpropanoyl}-DArginyl-OH], the Ki under setting [1] amounted to 22 nM.

In the case of `CC[C@H](C(=O)N[C@@H](CCCCN)C(=O)N1CCC[C@H]1C(=O)N[C@H](CC1CCCCC1)C(=O)N[C@@H](CC1CCCCC1)C(=O)N[C@H](CCCNC(=N)N)C(=O)O)c1ccccc1` [Example 2, (S)-(+)-2-phenylbutyryl-Lysyl-Prolyl-{(2R)-2-Amino-3-cyclohexylpropanoyl}-{(2S)-2-Amino-3-cyclohexylpropanoyl}-DArginyl-OH] (X9-KP[dCha][Cha][dR]-OH), the Ki under setting [1] amounted to 14 nM.

Turning to `N=C(N)NCCC[C@@H](NC(=O)[C@H](Cc1ccccc1)NC(=O)[C@@H](CC1CCCCC1)NC(=O)[C@@H]1CCCN1C(=O)[C@H](CCCCN)NC(=O)C(CO)c1ccccc1)C(=O)O` (stereo partly drawn) [Example 8, {(2R/S)-2-Hydroxymethyl-2-phenylacetyl}-Lysyl-Prolyl-{(2R)-2-Amino-3-cyclohexylpropanoyl}-Phenylalanyl-DArginyl-OH] (X7-KP[dCha]F[dR]-OH), the Ki under setting [1] stood at 6200 nM.

In the case of `CN[C@@H](Cc1ccccc1)C(=O)N[C@@H](CCCCN)C(=O)N1CCC[C@H]1C(=O)N[C@H](CC1CCCCC1)C(=O)N[C@@H](CC1CCCCC1)C(=O)NCCCCCN` [Example 30, (N-Methyl)Phenylalanyl-Lysyl-Prolyl-{(2R)-2-Amino-3-cyclohexylpropanoyl}-{(2S)-2-Amino-3-cyclohexylpropanoyl}-N-(5-Aminopentyl)amide] (H-[NMeF]KP[dCha][Cha]-{NH(CH2)5NH2}), the Ki under setting [1] came to 2200 nM.

On to `CN[C@@H](Cc1ccccc1)C(=O)N[C@@H](CCCCN)C(=O)N1CCC[C@H]1C(=O)N[C@H](CC1CCCCC1)C(=O)N[C@@H](CC1CCCCC1)C(=O)NCCCNC(=N)N` [Example 55, (N-Methyl)Phenylalanyl-Lysyl-Prolyl-{(2R)-2-Amino-3-cyclohexylpropanoyl}-{(2S)-2-Amino-3-cyclohexylpropanoyl}-N-(3-Guanidinopropyl)amide] (H-[NMeF]KP[dCha][Cha]-X3), for which the Ki under setting [1] was 7 nM.

As for `C[C@@H](CC(=O)N[C@@H](CCCCN)C(=O)N1CCC[C@H]1C(=O)N[C@H](CC1CCCCC1)C(=O)N[C@@H](CC1CCCCC1)C(=O)N[C@H](CCCNC(=N)N)C(=O)O)c1ccccc1` [Example 57, {S(+)-3-Phenylbutyryl}-Lysyl-Prolyl-{(2R)-2-Amino-3-cyclohexylpropanoyl}-{(2S)-2-Amino-3-cyclohexylpropanoyl}-DArginyl-OH] ({Butanoyl(3S-Ph)}-KP[dCha][Cha][dR]-OH), under setting [1], the Ki stood at 27 nM.

The molecule `CN[C@@H](Cc1ccccc1)C(=O)N[C@@H](CCCCN)C(=O)N1CCC[C@H]1C(=O)N[C@H](CC1CCCCC1)C(=O)N[C@@H](CC1CCCCC1)CN(CCCCNC(=N)N)C(=O)Cc1ccccc1` [Example 78, N-(4-Guanidinobutyl)-N-[(N-Methyl)Phenylalanyl-Lysyl-Prolyl-{(2R)-2-Amino-3-cyclohexylpropanoyl}-{(2S)-2-Amino-3-cyclohexylpropyl}]-N-Phenylacetamide] (H-[NMeF]KP[dCha]-X10) yielded a Ki of 680 nM.

On to `N=C(N)NCCC[C@@H](NC(=O)[C@H](CC1CCCCC1)NC(=O)[C@@H](CC1CCCCC1)NC(=O)[C@@H]1CCCN1C(=O)[C@H](CCCCN)NC(=O)c1ccccc1)C(=O)O` [Example 82, N-Benzoyl-Lysyl-Prolyl-{(2R)-2-Amino-3-cyclohexylpropanoyl}-{(2S)-2-Amino-3-cyclohexylpropanoyl}-DArginyl-OH] (Bz-KP[dCha][Cha][dR]-OH), for which the affinity, expressed as Ki, was 24000 nM.

As for `N=C(N)NCCC[C@@H](NC(=O)[C@H](Cc1ccccc1)NC(=O)[C@@H](CC1CCCCC1)NC(=O)[C@@H]1CCCN1C(=O)[C@H](CCCCN)NC(=O)[C@@H](O)Cc1ccccc1)C(=O)O` [Example 84, {(3S)-Phenyllactyl)-Lysyl-Prolyl-{(2R)-2-Amino-3-cyclohexylpropanoyl}-Phenylalanyl-DArginyl-OH] (H-[PhLac]KP[dCha]F[dR]-OH), the inhibitory constant (Ki) under setting [1] came to 62 nM.

`N#CC(Cc1ccccc1)(Cc1ccccc1)C(=O)N[C@@H](CCCCN)C(=O)N1CCC[C@H]1C(=O)N[C@H](CC1CCCCC1)C(=O)N[C@@H](Cc1ccccc1)C(=O)N[C@H](CCCNC(=N)N)C(=O)O` [Example 88, {2-Benzyl-2-cyano-3-phenylpropionyl}-Lysyl-Prolyl-{(2R)-2-Amino-3-cyclohexylpropanoyl}-Phenylalanyl-DArginyl-OH] (X6-KP[dCha]F[dR]-OH): the Ki under setting [1] came to 670 nM.

Regarding `CN[C@@H](Cc1ccccc1)C(=O)N[C@@H](CCCCN)C(=O)N1CCC[C@H]1C(=O)N[C@H](CC1CCCCC1)C(=O)N[C@@H](CC1CCCCC1)C(=O)NCc1ccccc1` [Example 96, (N-Methyl)Phenylalanyl-Lysyl-Prolyl-{(2R)-2-Amino-3-cyclohexylpropanoyl}-{(2S)-2-Amino-3-cyclohexylpropanoyl}-N-Benzylamide] (H-[NMeF]KP[dCha][Cha]-NHBn), the Ki under setting [1] was 90 nM.

In turn, `N#CC(Cc1ccccc1)C(=O)N[C@@H](CCCCN)C(=O)N1CCC[C@H]1C(=O)N[C@H](CC1CCCCC1)C(=O)N[C@@H](Cc1ccccc1)C(=O)N[C@H](CCCNC(=N)N)C(=O)O` (stereo partly drawn) [Example 99, {(2RS)-2-Cyano-3-phenylpropionyl}-Lysyl-Prolyl-{(2R)-2-Amino-3-cyclohexylpropanoyl}-Phenylalanyl-DArginyl-OH] (X2-KP[dCha]F[dR]-OH) displayed a Ki of 120 nM.

As to `CN[C@@H](Cc1ccccc1)C(=O)N[C@@H](CCCCN)C(=O)N1CCC[C@H]1C(=O)N[C@H](CC1CCCCC1)C(=O)N[C@@H](Cc1ccccc1)C(=O)NCC1(c2ccccc2)CC1` [Example 100, (N-Methyl)Phenylalanyl-Lysyl-Prolyl-{(2R)-2-Amino-3-cyclohexylpropanoyl}-Phenylalanyl-N-{(1-Phenyl)cyclopropylmethyl}amide] (H-[NMeF]KP[dCha]F-X8), the affinity, expressed as Ki, was 91 nM.

Take `CN[C@@H](Cc1ccccc1)C(=O)N[C@@H](CCCCN)C(=O)N1CCC[C@H]1C(=O)N[C@H](CC1CCCCC1)C(=O)N[C@@H](CC1CCCCC1)C(=O)NCc1cccc([N+](=O)[O-])c1` [Example 114, (N-Methyl)Phenylalanyl-Lysyl-Prolyl-{(2R)-2-Amino-3-cyclohexylpropanoyl}-{(2S)-2-Amino-3-cyclohexylpropanoyl}-N-(3-Nitrobenzyl)amide] (H-[NMeF]KP[dCha][Cha]-X11): the Ki under setting [1] was found to be 130 nM.

With `CN[C@@H](Cc1ccccc1)C(=O)N[C@@H](CCCCN)C(=O)N1CCC[C@H]1C(=O)N[C@H](CC1CCCCC1)C(=O)N1CCN(Cc2ccccc2)CC1` [Example 117], the Ki under setting [1] stood at 110000 nM.

Consider `CN[C@@H](Cc1ccccc1)C(=O)N[C@@H](CCCCN)C(=O)N1CCC[C@H]1C(=O)N[C@H](CC1CCCCC1)C(=O)N[C@H](CO)Cc1ccccc1` [Example 119, (N-Methyl)Phenylalanyl-Lysyl-Prolyl-{(2R)-2-Amino-3-cyclohexylpropanoyl}-{(S)-(-)-2-Amino-3-phenyl-1-propanol}] (H-[NMeF]KP[dCha][Phe(ol)]), for which the Ki under setting [1] is 780 nM.

On to `CN[C@@H](Cc1ccccc1)C(=O)N[C@@H](CCCCN)C(=O)N1CCC[C@H]1C(=O)N[C@H](CC1CCCCC1)C(=O)NC(CC1CCCCC1)C(=O)OCc1ccccc1` (stereo partly drawn) [Example 159, (N-Methyl)Phenylalanyl-Lysyl-Prolyl-{(2R)-2-Amino-3-cyclohexylpropanoyl}-{(2R/S)-2-Amino-3-cyclohexylpropanoyl}O-Benzyl] (H-[NMeF]KP[dCha][ξCha]-OBn), for which the Ki under setting [1] was 980 nM.

Take `CN[C@@H](Cc1ccccc1)C(=O)N[C@@H](CCCCN)C(=O)N1CCC[C@H]1C(=O)N[C@H](CC1CCCCC1)C(=O)N[C@@H](CC1CCCCC1)C(=O)NNc1ccccc1` [Example 163, (N-Methyl)Phenylalanyl-Lysyl-Prolyl-{(2R)-2-Amino-3-cyclohexylpropanoyl}-{(2S)-2-Amino-3-cyclohexylpropanoyl}-N-(N'-Phenyl)hydrazide] (H-[NMeF]KP[dCha][Cha]-X5): the Ki was determined as 140 nM.

The molecule `CN[C@@H](Cc1ccccc1)C(=O)N[C@@H](CCCCN)C(=O)N1CCC[C@H]1C(=O)N[C@H](CC1CCCCC1)C(=O)N[C@@H](Cc1ccccc1)C(=O)NCc1ccc(C(=O)O)cc1` [Example 177, (N-Methyl)Phenylalanyl-Lysyl-Prolyl-{(2R)-2-Amino-3-cyclohexylpropanoyl}-Phenylalanyl-N-(4-Carboxybenzyl)amide] (H-[NMeF]KP[dCha]F[4Amb]-OH) had a Ki of 38700 nM.

For `CN[C@@H](Cc1ccccc1)C(=O)N[C@@H](CCCCN)C(=O)N1CCC[C@H]1C(=O)N[C@H](CCCNC(=N)N)C(=O)N[C@@H](Cc1ccccc1)C(=O)NCc1ccccn1` [Example 199, (N-Methyl)Phenylalanyl-Lysyl-Prolyl-DArginyl-Phenylalanyl-N-(2-Picolyl)amide] (H-[NMeF]KP[dR]F-{NHCH2(2-pyridyl)}), the Ki under setting [1] amounted to 8400 nM.

The values above are taken from patent US5190922A (priority 1991, dated 1993).
